In patent US6075132A, “Ursodeoxycholic acid derivatives and methods for producing them” (Bio Research Corporation of Yokohama, priority 1998, dated 2000):
≈ marks a conversion by molar mass, not a printed value. Where two headings read alike, the source gives them in different places.

Experiment: Solubility in water (membrane-filtered supernatant after 18 h stirring; phenol-sulfuric acid method and HPLC)
Format: physicochemical
Details: for solubility in water relative to that of ursodeoxycholic acid: 1080 min
Description: 20 mg of the ursodeoxycholic acid derivative prepared above and shown in Table 1 below was sampled, to which was added 0.2 ml of water and stirred for 18 hours. The resulting supernatant was taken out through filtration with a membrane filter (0.45μm), and analyzed according to the phenol-sulfuric acid method and through HPLC. The condition for HPLC was as follows:
Column: YMC's YMC-Pack ODS-AQ-303 (4.6×250 mm)
Detector: Photo-diode array detector (202 nm)
Amount Charged into Column: 20 μl

| Compound | solubility in water relative to that of ursodeoxycholic acid | solubility at 18 h (water) [µg/mL] | Solubility in Water (water, 18 h) [µg/mL] | solubility at 18 h (water, stirred for 18 hours, read-out: Solubility in Water) [µg/mL] |
| --- | --- | --- | --- | --- |
| C[C@H](CCC(=O)O)[C@H]1CC[C@H]2[C@@H]3[C@@H](OC(=O)COC4O[C@H](CO)[C@@H](O)[C@H](O)[C@H]4O)C[C@@H]4C[C@H](OC(=O)COC5O[C@H](CO)[C@@H](O)[C@H](O)[C@H]5O)CC[C@]4(C)[C@H]3CC[C@]12C (stereo partly drawn) [3,7-GLG-ursodeoxycholic acid, diglycosyloxyacetyl-3,7-ursodeoxycholic acid] | about 2500 times | 95000 (≈ 114000 µM) | 95000 (≈ 114000 µM) |  |
| C[C@H](CCC(=O)O)[C@H]1CC[C@H]2[C@@H]3[C@@H](O)C[C@@H]4C[C@H](O)CC[C@]4(C)[C@H]3CC[C@]12C [Ursodeoxycholic acid, ursodeoxycholic acid] |  |  |  | 38 (≈ 96.8 µM) |
| C[C@H](CCC(=O)OCCOC1O[C@H](CO)[C@@H](O)[C@H](O)[C@H]1O)[C@H]1CC[C@H]2[C@@H]3[C@@H](O)C[C@@H]4C[C@H](O)CC[C@]4(C)[C@H]3CC[C@]12C (stereo partly drawn) [24-GLG-ursodeoxycholic acid, glycosyloxyethyl-24-ursodeoxycholic acid] | about 13 times | 511 (≈ 853 µM) |  |  |
